Assay results: patent publication US9365511B2, “Biphenyl-ethyl-pyrrolidine derivatives as histamine H3 receptor modulators for the treatment of cognitive disorders” (Arena Pharmaceuticals, Inc., priority 2013, dated 2016)
“Also recorded” adds a separate entry of the source. Like-named read-outs stand apart in the source and are kept apart here.

Tests used:
[1] = tested on: histamine-induced scratching behavior in mice; experiment: Histamine-induced model for pruritus (Example 6); format: in vivo, C57BL/6j male mice; settings: oral administration, histamine s.c. 30 min post-dosing, bouts counted 5-15 min, FIG. 6
Experimental: H3R inhibitors, Compound 3 and Compound 11, were dissolved in 0.5% methylcellulose at the appropriate concentration and 100 μL were administered orally to 8-week-old C57BL/6j male mice. Thirty minutes post-dosing, 25 μL of 40 mg/mL histamine solution was injected subcutaneously at the rostral part of the back. Mice were video recorded and the number of scratching bouts that occurred between 5 and 15 minutes was counted after histamine injection.

human H3 receptor = human H3 receptor (Homo sapiens (Human), UniProt Q9Y5N1); experiment: Human H3 receptor HTRF cAMP assay; format: cell-based; settings: HEK293 cells expressing the human H3 receptor, forskolin 2 μM; read-out: IC50 H3R
Chain of human H3 receptor (Q9Y5N1 whole entry): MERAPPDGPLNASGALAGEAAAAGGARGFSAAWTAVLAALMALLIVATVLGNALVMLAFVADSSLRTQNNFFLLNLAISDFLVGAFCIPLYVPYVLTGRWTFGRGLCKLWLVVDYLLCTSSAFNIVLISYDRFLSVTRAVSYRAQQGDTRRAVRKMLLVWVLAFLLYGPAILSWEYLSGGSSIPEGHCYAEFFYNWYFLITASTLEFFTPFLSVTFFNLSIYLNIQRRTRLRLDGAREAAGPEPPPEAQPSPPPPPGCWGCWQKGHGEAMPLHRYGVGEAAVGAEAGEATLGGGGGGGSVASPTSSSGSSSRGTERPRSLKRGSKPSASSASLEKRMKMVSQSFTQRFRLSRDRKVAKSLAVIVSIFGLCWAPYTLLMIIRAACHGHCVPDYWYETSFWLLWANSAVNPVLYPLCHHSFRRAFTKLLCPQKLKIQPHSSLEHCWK
Text: Homogeneous time-resolved fluorescence assays (HTRF®, Cisbio) detect levels of cAMP in lysed cell preparations using a europium or terbium cryptate-labeled anti-cAMP antibody and fluorophore-labeled cAMP (cAMP-d2). In the absence of exogenous cAMP, the anti-cAMP antibody binds to cAMP-d2. Photoexcitation of the cryptate donor results in a combination of cryptate emission at 620 nm and fluorescence resonance energy transfer (FRET) from the cryptate to the acceptor d2 fluorophore, which then fluoresces at 665 nm. The 620/665 nm emission ratio is monitored. In the presence of exogenous cAMP, which competes with cAMP-d2 for binding to the anti-cAMP antibody, FRET is decreased and the […], providing a sensitive and accurate means to measure cAMP levels in biological assays.
Compounds of the present invention were evaluated using the human H3 receptor (H3R) HTRF cAMP assay. In this assay, HEK293 cells expressing the human H3 receptor were suspended in PBS containing 100 μM IBMX and plated into 384-well assay plates (Perkin Elmer Proxiplate 384-Plus; 15,000 cells per well; 5 μL plating volume) and allowed to equilibrate for an hour. Test compounds were serially diluted in 100% DMSO and then further diluted in PBS containing forskolin (2 μM). Test compounds (5 μL) were then added to the assay plate and the mixture was incubated for 1 hour. HTRF assay reagents (Cisbio, Dynamic 2 cAMP Kit), cAMP-d2 and cryptate-labeled anti-cAMP antibody, are mixed with cell lysis buffer and added to the assay plate. After 1-hour incubation with these reagents, the assay plate was read on an HTRF-compatible microplate reader (Perkin Elmer EnVision or BMG Pherastar). A cAMP standard curve was included on each assay plate and HTRF emission ratios for test compounds were fit to this curve to generate accurate measures of cAMP levels in each test well.

[2] = Brain to plasma ratio determination in male C57BL6 mouse; format: in vivo, Male C57BL6 mice
Experimental: Male C57BL6 mice were administered Compound 3 at 3 mg/kg by either intraperitoneal injection (IP) or oral gavage (PO). Plasma and brain samples were collected at 0.5 and 2.0 h post-dose. Blood samples were collected via eye bleed, followed by decapitation and extraction of the brain from the cranial cavity. Blood was treated with 0.5% EDTA; plasma was separated by centrifugation. Brain tissue was placed in ice-cold containers. Plasma and brain samples were frozen at approximately −70° C. until assayed at Arena Pharmaceuticals. Compound 3 plasma and brain concentrations were determined by LC/MS/MS. The lower limit of quantitation (i.e., LLQ) was 25.0 and 3.0 ng/mL for plasma and brain, respectively.

[3] = tested on: histamine-induced scratching behavior in mice; experiment: Histamine-induced model for pruritus (Example 5); format: in vivo, C57BL/6 mice; settings: oral administration, histamine 3 μmol s.c. 30 min post-dosing, bouts counted 0-30 min, FIG. 5
Experimental: C57BL/6 mice (9 per group) were administered with either vehicle (0.5% Methocellulose) or Compound 3. Thirty minutes post-dosing, the mice were injected with histamine (3 μmol) subcutaneously and placed in a clear observation box. Mice were video recorded and the number of scratching bouts that occurred between 0 and 30 minutes was counted after histamine injection.

Which “histamine-induced scratching behavior (number of scratching bouts)” value [1] does the source give for C[C@@H]1CCCN1CCc1ccc(-c2ccc(CCC(=O)O)cc2)cc1 [Compound 3, (R)-3-(4′-(2-(2-Methylpyrrolidin-1-yl)ethyl)biphenyl-4-yl)propanoic Acid] here?
The value was “effectively inhibit histamine-induced pruritus; also recorded: inhibit histamine-induced scratching behavior”.

What about the IC50 (human H3 receptor) of the same compound?
Its IC50 is 2.5 nM.

What about the concentration at 0.5 h ([2]; C57BL6, brain, 3 mg/kg PO, 0.5 h post-dose, read-out: brain concentration) of the same compound?
The concentration at 0.5 h was 39.8 ± 22.7 ng/g.

What about the concentration at 2 h ([2]; C57BL6, brain, 3 mg/kg PO, 2.0 h post-dose, read-out: brain concentration) of the same compound?
Its concentration at 2 h is 29.1 ± 7 ng/g.

And the concentration at 0.5 h ([2]; C57BL6, brain, intraperitoneal, 3 mg/kg IP, 0.5 h post-dose, read-out: brain concentration)?
Its concentration at 0.5 h is 71.7 ± 10.7 ng/g.

And the concentration at 2 h ([2]; C57BL6, brain, intraperitoneal, 3 mg/kg IP, 2.0 h post-dose, read-out: brain concentration)?
Its concentration at 2 h is 17.2 ± 7.5 ng/g.

And the Kp ([2]; C57BL6, brain/plasma, 3 mg/kg IP, independent of time)?
Its Kp is roughly 0.05.

And the Kp at 0.5 h ([2]; C57BL6, brain/plasma, 3 mg/kg PO, 0.5 h post-dose)?
The Kp at 0.5 h was 0.04.

And the Kp at 2 h ([2]; C57BL6, brain/plasma, 3 mg/kg PO, 2.0 h post-dose)?
The Kp at 2 h was 0.05.

And the concentration at 0.5 h ([2]; C57BL6, plasma, 3 mg/kg PO, 0.5 h post-dose, read-out: plasma concentration)?
The concentration at 0.5 h was 1080 ± 487 ng/mL.

And the concentration at 2 h ([2]; C57BL6, plasma, 3 mg/kg PO, 2.0 h post-dose, read-out: plasma concentration)?
Its concentration at 2 h is 619 ± 185 ng/mL.

And the concentration at 0.5 h ([2]; C57BL6, plasma, intraperitoneal, 3 mg/kg IP, 0.5 h post-dose, read-out: plasma concentration)?
The concentration at 0.5 h was 1350 ± 104 ng/mL.

What about the concentration at 2 h ([2]; C57BL6, plasma, intraperitoneal, 3 mg/kg IP, 2.0 h post-dose, read-out: plasma concentration) of the same compound?
The concentration at 2 h was 364 ± 135 ng/mL.

What about the “histamine-induced scratching behavior (number of scratching bouts)” value [3] of the same compound?
The value was “effectively inhibits histamine-induced pruritus; also recorded: inhibit histamine-induced scratching behavior”.
